Common to all, as to type: physicochemical
A short description of data set [1]: Fluorescence emission of solid drug samples exposed to 80° C. (thermal stability). To be noted: oven at 80° C., 15 and 41 hours vs unexposed, Renishaw Raman Spectrometer. Here is the method:
In the following examples, drug candidate stability is evaluated using non-destructive tests to track any change in property over time while exposed to a condition. Fluorescence, Raman, powder X-ray diffraction, near-IR, mid-IR, UV-Vis absorbance, and colorimetry are used. A change in the peak intensity for these tests is measured for the samples before exposure and during exposure.
Two 20 ml vials containing approximately 10 mg each of Amoxicillin, two 20 ml vials containing approximately 10 mg each of Ampicillin trihydrate and two 20 ml vials containing approximately 10 mg each of Caphalexin hydrate were prepared and placed in an oven at 80° C. One vial of each compound was removed from the oven after 15 hours of exposure, and the other vial of each compound was removed from the oven after 41 hours. Approximately 2 mg samples from each of the vials were placed in discreet regions of a Universal ⋄ Substrate™. Approximately 2 mg of unexposed Amoxicillan, Ampicillin trihydrate and Cephalexil hydrate were also placed in discreet regions of the Universal ⋄ Substrate™. The Raman scattering response and the fluorescence emission response of the samples were measured using a Renishaw Raman Spectrometer.

Data set [2] in a line: FT-Raman of solid drug samples exposed to 80° C. (thermal stability). To be noted: heated for 216 hours at 80° C. vs unexposed. The text has this: The change in FT-Raman signal is used to measure the rate of drug decomposition and the chemical stability of the drug candidate.
A short description of data set [3]: Powder X-ray diffraction of exposed and unexposed drug sample (thermal stability, crystallinity). The note with it: solid, oven 216 hours at 100 C vs unexposed. Here is the method:
Approximately 2 mg of Amoxicillin was placed on a Universal ⋄ Substrate™ and exposed in an oven for 216 hours at 100 C. After the sample was removed from the oven, approximately 2 mg of unexposed sample was also on the placed on the Universal ⋄ Substrate™. The X-ray powder diffraction (XRD) patterns for the exposed and unexposed samples were collected on a Bruker D-8 C2 X-ray diffractometer.

The values below come from patent US20040219602A1, “Evaluating effects of exposure conditions on drug samples over time” (Symyx Technologies, Inc., priority 2003, published 2004).

In the case of `CC1(C)S[C@@H]2[C@H](NC(=O)[C@H](N)c3ccccc3)C(=O)N2[C@H]1C(=O)O` [Ampicillin trihydrate], the “amplitude of the fluorescence emission as a function of heating time” value (shortened to “amplitude of the fluorescence emission”) in data set [1] was “increased significantly”.

On to `CC1=C(C(=O)O)N2C(=O)[C@@H](NC(=O)[C@H](N)c3ccccc3)[C@H]2SC1` [Cephalexin hydrate], for which the “amplitude of the fluorescence emission” value in data set [1] is on record as “increased significantly”.

For `CC1(C)S[C@@H]2[C@H](NC(=O)[C@H](N)c3ccc(O)cc3)C(=O)N2[C@H]1C(=O)O` [Amoxicillin], the “change of FT-Raman spectrum after heating” value in data set [2] is on record as “changes significantly”. Besides, in data set [3], the “crystallinity (powder diffraction intensity) after exposure” value was “almost completely lost”. Also, the “amplitude of the fluorescence emission” value in data set [1] is on record as “increased significantly”.
